Measurements: US9603876B2, “Compositions and methods for restoring gastrointestinal microbiota following antibiotic treatment” (New York University, priority 2008, dated 2017)

Tests used:
Format in all cases: in vivo, C57/B6 mice
[1] = Body composition (fat mass, lean mass, % body fat, bone mineral density) by DEXA in sub-therapeutic antibiotic treated (STAT) mice; details: at 6 to 9 weeks, sub-therapeutic dose in drinking water, vs control mice
Excerpt: C57/B6 mice were obtained at weaning (21 days) from Jackson Laboratories (Bar Harbor, Me.). They were weighed and then distributed in cages so that the mean weights of the mice in each cage were equal. The mice were then allowed to adjust to the NYU animal facility. At day 23 of life, the antibiotic-exposure experiment began. Animals were allowed ad libitum access to food and water and maintained with a 12-hour light/dark cycle. The mice were fed standard laboratory chow (Purina Mills International Diet # 5001). These conditions were continued until the time of sacrifice.
Mice were given standard water (pH 6.8) or water containing the following antimicrobial agents (at sub-therapeutic levels) in groups of 5-10 mice per experimental condition.
Body composition (fat mass, lean mass, percent [%] body fat) was determined using dual energy X-ray absorptiometry (DEXA) with a Lunar PIXImus II mouse densitometer (PIXImus, Fitchburg, Wis.) at the time of sacrifice. Each mouse was scanned individually. Data collected from the scan included fat and lean body mass, percent body fat, and bone mineral density.
Since maximal growth of mice in these experiments was during the first 2 weeks after weaning, a group of mice were sacrificed at two weeks, and bone mineral density (BMD) and fat phenotypes assessed. […]

[2] = test system: bacterial populations of cecal contents; assay: RAPD-PCR characterization of the microbial population in cecal contents; details: DNA from cecal contents; primers 1254, OPL-02, OPL-12
Procedure: (§1) Approximately 10 mg of fecal or cecal samples were suspended in a solution containing 500 μl of extraction buffer (200 mM Tris (pH 8.0), 200 mM NaCl, 20 mM EDTA), 210 μl of 20% SDS, 500 μl of a mixture of phenol:chloroform (pH 7.9, 24:24), and 500 μl of a slurry of 0.1 mm-diameter zirconia beads. Cells were lysed by mechanical disruption with a bead beater set on high for 2 min at room temperature, followed by extraction with phenol:chloroform (pH 7.9, 24:24), and precipitation with isopropanol. After the sample was suspended in 100 μl of TE buffer, the extraction products were further purified using a modified protocol from the ExtractMaster Fecal DNA extraction kit (Epicentre Technologies, Madison Wis.). Residual protein was precipitated using the Protein Precipitation reagent and inhibitors were removed through an Inhibitor Removal Resin spin column. The final product was suspended in 100 μl of TE buffer.
Characterization of the microbial population in the fecal samples was performed using random amplified polymorphic DNA PCR(RAPD-PCR). […] The gels were stained with ethidium bromide and imaging was analyzed using imaged. […]
The positive control (+) was DNA from P. acnes strain VPI 0389. […] The letters A, B, C over columns C10, P1, and P2, respectively, were analyzed be measuring luminescence (see FIGS. 9A-B). […]

[3] = test system: Bacteroidetes and Firmicutes in the cecal microbiota; assay: Phylum-level analysis of cecal bacterial populations by 454 sequencing of 16S rRNA V3 region; details: cecal contents, Mann-Whitney U-test
Procedure: Approximately 10 mg of fecal or cecal samples were suspended in a solution containing 500 μl of extraction buffer (200 mM Tris (pH 8.0), 200 mM NaCl, 20 mM EDTA), 210 μl of 20% SDS, 500 μl of a mixture of phenol:chloroform (pH 7.9, 24:24), and 500 μl of a slurry of 0.1 mm-diameter zirconia beads. Cells were lysed by mechanical disruption with a bead beater set on high for 2 min at room temperature, followed by extraction with phenol:chloroform (pH 7.9, 24:24), and precipitation with isopropanol. […]
Phylum-level analysis of bacterial populations in […] mice. […] Mouse cecal contents were analyzed by 454 pryosequencing (Roche). […] For this experiment, the sequencing run produced 555,233 barcoded sequences with an average read length of 188±2.5 base pairs, an average read/barcode of 5784±676, and a read quality of 35. […] Order-level sequence data were summated to the phylum level and analyzed. […]
In another analysis, the proportion of all of the Eubacteria detected that were represented by the Firmicutes was examined. As shown in FIGS. 13A-B, % body fat measured by densitometry of the control and STAT mice (A) correlates with the ratio of Firmicute/Eubacteria as determined at the family level by 454 sequencing (B). […]

[4] = test system: Butyryl CoA transferase (BCoAT)-encoding genes; assay: Butyryl CoA transferase (BCoAT) gene qPCR on cecal specimens; details: cecal samples
Procedure: as §1
To test the effect of colonic microbiota on butyrate metabolism, a PCR assay was performed to detect genes encoding an enzyme, Butyryl CoA transferase (BCoAT), regardless of the taxonomic origin of the gene. The following primers were used: BCoATscrF […] (SEQ ID NO: 11) and BCoATscrR […] (SEQ ID NO: 12). BCoAT plays a central role in butyrate metabolism, which is an important short-chain fatty acid (SCFA) in colonic metabolism and provides energy to colonocytes (FIG. 14). […]

[5] = test system: total fecal eubacterial and fungal levels; assay: Total microbial counts in fecal pellets by qPCR (16S rRNA, fungal ITS2)
Procedure: At approximately weekly intervals, a fresh fecal pellet was collected from each individual mouse and frozen at −80° C. until DNA could be extracted. At the time of sacrifice, a fecal pellet was collected, as well as the cecal contents.
as §1, with “Residual protein was precipitated using the Protein Precipitation reagent and inhibitors were removed through an Inhibitor Removal Resin spin column. The final product was suspended in 100 μl of TE buffer.” left out
Analysis of total microbial counts in STAT Mice. […] This possibility was addressed by examining total fecal eubacterial levels in penicillin-treated and control mice by a standardized quantitative PCR (qPCR) using primers […] […] Total fungal levels were determined by qPCR using primers directed to the conserved ITS2 region in the fungal rrn operon ITS1F […] […]

Compound	more fat mass than controls (normalized mean fat mass) [1] [%]	RAPD-PCR products compared to control mice [2]	Firmicutes and B/F ratio compared to the controls [3]	BCoAT densities compared to controls [4]	number of copies of bacterial or fungal rrn elements vs control [5]
CN(C)[C@@H]1C(O)=C(C(N)=O)C(=O)[C@@]2(O)C(O)=C3C(=O)c4c(O)ccc(Cl)c4[C@@](C)(O)[C@H]3C[C@@H]12 [chlortetracycline, Chlortetracycline]	8.1±3.4	–	–	–	–
CN[C@H](CC(C)C)C(=O)N[C@H]1C(=O)N[C@@H](CC(N)=O)C(=O)N[C@H]2C(=O)N[C@H]3C(=O)N[C@H](C(=O)N[C@H](C(=O)O)c4cc(O)cc(O)c4-c4cc3ccc4O)[C@H](O)c3ccc(c(Cl)c3)Oc3cc2cc(c3O[C@@H]2O[C@H](CO)[C@@H](O)[C@H](O)[C@H]2O[C@H]2C[C@](C)(N)[C@H](O)[C@H](C)O2)Oc2ccc(cc2Cl)[C@H]1O [vancomycin, Vancomycin]	–	varying sets of bands	statistically significant	–	–
Penicillin	22.9±8.1	clear differences	–	increase	no significant difference
